System: scalp hair follicles
Assay: Epilation force measured with trichotillometer vs placebo (Example 5)
Type: in vivo, human
Details: 10% solution vs placebo, average of 10 subjects; listed as 10% PE
Protocol: To evaluate the effect of a topically applied α1-AR agonist on the force required to pluck hairs from the scalp, a hand-held spring dynamometer, or “trichotillometer” was used (8). The trichotillometer records the maximum force threshold, in grams, required to pluck a single hair from the scalp; the performance and statistical variance of the instrument have been reported previously (8-10). Force measurements were performed using the trichotillometer on 10 subjects. The frontal area of scalp was divided into two 8×10 cm2 areas. On the right side 0.5 mL of a placebo vehicle was applied. […] After 45 minutes, ten hairs were plucked from each of the target areas with the trichotillometer.

SMILES: CNC[C@H](O)c1cccc(O)c1 [phenylephrine]
- average increase of epilation force threshold: 172%
